Test results reported in US6855710B2, “Substituted indolines with an inhibitory effect on various kinases and complexes of CDKs” (Boehringer Ingelheim Pharma KG, priority 1998, dated 2005).

Row | Structure (SMILES) | melting point
1 | CN(C)CCNC(=O)CN(c1cccc(N/C(=C2\C(=O)Nc3ccccc32)c2ccccc2)c1)S(C)(=O)=O [Example 322, (Z)-3-{1-[3-(N-(2-dimethylamino-ethylaminocarbonylmethyl)-N-methylsulphonyl-amino)-phenylamino]-1-phenyl-methylidene}-2-indolinone] | 179 to 181 °C
2 | CN(C)Cc1ccc(N/C(=C2\C(=O)Nc3ccc([N+](=O)[O-])cc32)c2cccc(Cl)c2)cc1 [Example 224, (Z)-3-[1-(4-dimethylaminomethyl-phenylamino)-1-(3-chlorophenyl)-methylidene]-5-nitro-2-indolinone] | 274 °C
3 | O=C1Nc2ccc([N+](=O)[O-])cc2/C1=C(/Nc1ccc(CCN2CCCCC2)cc1)c1ccccc1 [Example 132, (Z)-3-{1-[4-(2-piperidinoethyl)-phenylamino]-1-phenyl-methylidene}-5-nitro-2-indolinone] | 236 to 237 °C
4 | O=C1Nc2ccc([N+](=O)[O-])cc2/C1=C(/Nc1ccc(CNCCO)cc1)c1ccccc1 [Example 239, (Z)-3-{1-[4-(2-hydroxy-ethylaminomethyl)-phenylamino]-1-phenyl-methylidene}-5-nitro-2-indolinone] | 196 to 198 °C
5 | CN(C)CCN(C)C(=O)CN(c1cccc(N/C(=C2\C(=O)Nc3ccccc32)c2ccccc2)c1)S(C)(=O)=O [Example 323, (Z)-3-{1-[3-(N—((N-(2-dimethylaminoethyl)-N-methyl-amino)-carbonylmethyl)-N-methylsulphonyl-amino)-phenylamino]-1-phenyl-methylidene}-2-indolinone] | 197 to 199 °C
6 | O=C1Nc2ccc([N+](=O)[O-])cc2/C1=C(/Nc1ccc(Br)cc1)c1ccc(Cn2ccnc2)cc1 [Example 438, (Z)-3-{1-[4-Bromophenylamino]-1-[4-(imidazol-1-ylmethyl)-phenyl]-methylidene}-5-nitro-2-indolinone] | 260 to 265 °C
7 | COCC(=O)Nc1ccc(N/C(=C2\C(=O)Nc3ccccc32)c2ccccc2)cc1 [Example 40, (Z)-3-[1-(4-methoxymethylcarbonylamino-phenylamino)-1-phenyl-methylidene]-2-indolinone] | 238 to 240 °C
8 | O=CNc1cccc(N/C(=C2\C(=O)Nc3ccccc32)c2ccccc2)c1 [Example 30, (Z)-3-[1-(3-formylamino-phenylamino)-1-phenyl-methylidene]-2-indolinone] | 231 °C
9 | CCC(=O)N(CC(=O)O)c1ccc(N/C(=C2\C(=O)Nc3ccccc32)c2ccccc2)cc1 [Example 357, (Z)-3-{1-[4-(N-carboxymethyl-N-propionyl-amino)-phenylamino]-1-phenyl-methylidene}-2-indolinone] | 270 °C (dec.)
10 | CN(C)C(=O)CN(c1ccc(N/C(=C2\C(=O)Nc3ccccc32)c2ccccc2)cc1)S(C)(=O)=O [Example 193, (Z)-3-{1-[4-(N-dimethylaminocarbonylmethyl-N-methylsulphonylamino)-phenylamino]-1-phenyl-methylidene}-2-indolinone] | 260 to 262 °C
11 | CC(=O)NCc1ccc(/C(Nc2ccc(N(C)C(=O)CN(C)C)cc2)=C2/C(=O)Nc3ccccc32)cc1 [Example 431, (Z)-3-{1-[4-(N-dimethylaminomethylcarbonyl-N-methyl-amino)-phenylamino]-1-(4-acetylaminomethyl-phenyl)-methylidene}-2-indolinone] | 123 to 125 °C
12 | O=C(O)Cc1ccc(N/C(=C2\C(=O)Nc3ccccc32)c2ccccc2)cc1 [Example 16, (Z)-3-[1-(4-carboxymethyl-phenylamino)-1-phenyl-methylidene]-2-indolinone] | 214 to 216 °C
13 | CN(C)Cc1ccc(N/C(=C2\C(=O)Nc3ccccc32)c2ccc([N+](=O)[O-])cc2)cc1 [Example 219, (Z)-3-[1-(4-dimethylaminomethyl-phenylamino)-1-(4-nitrophenyl)-methylidene]-2-indolinone] | 235 °C
14 | O=C1Nc2ccc([N+](=O)[O-])cc2/C1=C(/Nc1ccc(CNC2CC2)cc1)c1ccccc1 [Example 274, (Z)-3-{1-[4-(cyclopropylaminomethyl)-phenylamino]-1-phenyl-methylidene}-5-nitro-2-indolinone] | 220 to 221 °C (dec.)
15 | O=C1Nc2ccccc2/C1=C(/Nc1ccccc1)c1ccccc1 [Example 1, (Z)-3-(1-Anilino-1-phenyl-methylidene)-2-indolinone] | 325 °C
16 | CN(C)CC(=O)N(C)c1ccc(N/C(=C2\C(=O)Nc3ccccc32)c2ccccc2)cc1.Cl | 290 to 292 °C
17 | COC(=O)/C=C/c1ccc(/C(Nc2ccc(OC)cc2)=C2/C(=O)Nc3ccc([N+](=O)[O-])cc32)cc1 [Example 435, (Z)-3-{1-(4-methoxyphenylamino)-1-[(E)-4-(2-methoxycarbonylethenyl)-phenyl]-methylidene}-5-nitro-2-indolinone] | 266 to 270 °C

Row | Structure (SMILES) | melting point
18 | CN(C)CCc1ccc(N/C(=C2\C(=O)Nc3ccccc32)c2ccccc2)cc1 [Example 268, (Z)-3-{1-[4-(2-dimethylamino-ethyl)-phenylamino]-1-phenyl-methylidene}-2-indolinone] | 244 to 246 °C
19 | O=C(CN1CCOCC1)NCc1ccc(N/C(=C2\C(=O)Nc3ccc([N+](=O)[O-])cc32)c2ccccc2)cc1 [Example 141, (Z)-3-[1-(4-morpholinomethylcarbonylaminomethyl-phenylamino)-1-phenyl-methylidene]-5-nitro-2-indolinone] | 290 to 295 °C
20 | CS(=O)(=O)N(CCN1CCOCC1)c1ccc(N/C(=C2\C(=O)Nc3ccccc32)c2ccccc2)cc1 [Example 189, (Z)-3-{1-[4-(N-(2-morpholinoethyl)-N-methylsulphonyl-amino)-phenylamino]-1-phenyl-methylidene}-2-indolinone] | 249 to 250 °C
21 | COCCN(C)CC(=O)N(C)c1ccc(N/C(=C2\C(=O)Nc3ccccc32)c2ccccc2)cc1 [Example 372, (Z)-3-{1-[4-(N—(N-(2-methoxyethyl)-N-methyl-aminomethylcarbonyl)-N-methyl-amino)-phenylamino]-1-phenyl-methylidene}-2-indolinone] | 197 to 199 °C
22 | CS(=O)(=O)N(CC(N)=O)c1ccc(N/C(=C2\C(=O)Nc3ccccc32)c2ccccc2)cc1 [Example 191, (Z)-3-{1-[4-(N-aminocarbonylmethyl-N-methylsulphonyl-amino)-phenylamino]-1-phenyl-methylidene}-2-indolinone] | 276 to 278 °C
23 | CCN(CC)CC(=O)N(C)c1ccc(N/C(=C2\C(=O)Nc3ccccc32)c2ccccc2)cc1 [Example 49, (Z)-3-{1-[4-(N-Diethylaminomethylcarbonyl-N-methyl-amino)-phenylamino]-1-phenyl-methylidene}-2-indolinone] | 242 to 247 °C
24 | O=C1Nc2ccc([N+](=O)[O-])cc2/C1=C(/Nc1ccc(CN2CC[S+]([O-])CC2)cc1)c1ccccc1 [Example 230, (Z)-3-{1-[4-((1-oxothiomorpholino)-methyl)-phenylamino]-1-phenyl-methylidene}-5-nitro-2-indolinone] | 289 to 290 °C
25 | CC(=O)NCC(=O)N(C)c1ccc(N/C(=C2\C(=O)Nc3ccccc32)c2ccccc2)cc1 [Example 367, (Z)-3-{1-[4-(N-acetylaminomethylcarbonyl-N-methyl-amino)-phenylamino]-1-phenyl-methylidene}-2-indolinone] | 255 to 256 °C
26 | O=C1Nc2ccc([N+](=O)[O-])cc2/C1=C(/Nc1ccc(CCNCCO)cc1)c1ccccc1 [Example 256, (Z)-3-{1-[4-(2-(2-hydroxyethylamino)-ethyl)-phenylamino]-1-phenyl-methylidene}-5-nitro-2-indolinone] | 236 to 238 °C
27 | O=C1Nc2ccccc2/C1=C(/Nc1ccc(C(=O)N2CCCCC2)cc1)c1ccccc1 [Example 387, (Z)-3-{1-[4-(piperidinocarbonyl)-phenylamino]-1-phenyl-methylidene}-2-indolinone] | 212 to 214 °C
28 | CCOC(=O)CN(c1ccc(N/C(=C2\C(=O)Nc3ccc([N+](=O)[O-])cc32)c2ccccc2)cc1)S(C)(=O)=O [Example 198, (Z)-3-{-[4-(N-ethoxycarbonylmethyl-N-methylsulphonyl-amino)-phenylamino]-1-phenyl-methylidene}-5-nitro-2-indolinone] | 236 to 238 °C
29 | CN(C)CCN(c1ccc(N/C(=C2\C(=O)Nc3ccc([N+](=O)[O-])cc32)c2ccccc2)cc1)S(C)(=O)=O [Example 202, (Z)-3-{1-[4-(N-(2-dimethylamino-ethyl)-N-methylsulphonyl-amino)-phenylamino]-1-phenyl-methylidene}-5-nitro-2-indolinone] | 276 to 277 °C
30 | CN(C)CCS(=O)(=O)N(C)c1ccc(N/C(=C2\C(=O)Nc3ccccc32)c2ccccc2)cc1 [Example 382, (Z)-3-{1-[4-(N-(2-dimethylamino-ethylsulphonyl)-N-methyl-amino)-phenylamino]-1-phenyl-methylidene}-2-indolinone] | 165 to 168 °C
31 | CC(C)(C)OC(=O)N1CCN(Cc2ccc(N/C(=C3\C(=O)Nc4ccc([N+](=O)[O-])cc43)c3ccccc3)cc2)CC1 [Example 244, (Z)-3-{1-[4-(4-tert.butoxycarbonyl-piperazin-1-ylmethyl)-phenylamino]-1-phenyl-methylidene}-5-nitro-2-indolinone] | 236 to 237 °C (dec.)
32 | CN(C)CC(=O)NCc1ccc(N/C(=C2\C(=O)Nc3ccccc32)c2ccccc2)cc1 [Example 74, (Z)-3-[1-(4-dimethylaminomethylcarbonylaminomethyl-phenylamino)-1-phenyl-methylidene}-2-indolinone] | 200 to 205 °C
33 | CCN(CC)Cc1ccc(N/C(=C2\C(=O)Nc3ccc([N+](=O)[O-])cc32)c2ccccc2)cc1 [Example 159, (Z)-3-[1-(4-diethylaminomethyl-phenylamino)-1-phenyl-methylidene]-5-nitro-2-indolinone] | 173 to 174 °C
34 | CN(C)CCNC(=O)CN(c1ccc(N/C(=C2\C(=O)Nc3ccccc32)c2ccccc2)cc1)S(C)(=O)=O [Example 194, (Z)-3-{1-[4-(N-(2-dimethylamino-ethylaminocarbonylmethyl)-N-methylsulphonyl-amino)-phenylamino]-1-phenyl-methylidene}-2-indolinone] | 214 to 216 °C
